Measurements as given in patent publication US12358963B2, “Regenerative polypeptides and uses thereof” (Juvena Therapeutics, Inc., priority 2019, dated 2025).

Columns and labels:
Format in all cases: cell-based
mouse myoblast cells = test: Mouse myoblast proliferation assay (EdU); settings: for % EdU: vehicle 3.14
Method: FIG. 5A) Bar graph quantitation of % EdU+ mouse myoblast in response to BMP7. Myoblast were cultured 48h in the presence of BMP7 at indicated dose. Fresh media and BMP7 was added every 24h, followed by 2 hour EdU pulse and fixation. Mean∓S.D. Significant p-values (Vehicle˜BMP7 0.025 ug/mL: 1.21E-07, Vehicle˜BMP7 0.075 ug/mL: 8.05E-07, Vehicle˜BMP7 0.2255 ug/mL: 3.37E-03, Vehicle˜BMP7 0.9 ug/mL: 4.99E-02). FIG. 5B) Bar graph quantitation of % EdU+ human myoblast (person) in response to BMP7. Myoblast were cultured 72h in the presence of BMP7 at indicated dose. Cells were pulsed with EdU for 4 hours before fixation. Mean∓S.D. Significant p-values (Vehicle˜BMP7 1.56 ng/mL: 0.04). (*p<0.05 by Welch's One-Tailed T-test, n=2)
FIG. 6A) Bar graph of % EdU+ mouse myoblast cells compared to vehicle. Mouse myoblast were cultured 48h in the presence of indicated factors, followed by a 2 hour EdU pulse prior to fixation. Mean∓S.D. Significant p-values (FM˜BMP7: 0.008 ug/mL: 3.17E-02, FM˜Leucine: 300 uM BMP7: 0.008 ug/mL: 2.77E-03, FM˜Leucine: 100 uM BMP7: 0.008 ug/mL: 3.72E-05, FM˜Leucine: 900 uM BMP7: 0.008 ug/mL: 2.52E-03). (*p<0.05 by One-Way ANOVA Tukey Honest Significant Difference, n=2-6)
FIG. 7A: Bar graph of % EdU+ mouse myoblast cells compared to vehicle. Mouse myoblast were cultured 48h in the presence of indicated factors. EdU pulse and fixation. Mean∓S.D. (*p<0.05 by Student's One-Tailed T-Test of increased activity, n=2-6)
FIG. 10A) The suspension CHO cells were transiently transfected with either the empty control plasmid or the FGF17-hFcm encoding plasmid. After four days, the culture supernatants were collected and added into the culture of mouse myoblast cells for 48 hours, followed by a 2 hour EdU pulse prior to fixation. […] FIG. 10B) The suspension CHO cells were transiently transfected with the FGF17-hFcm encoding plasmid. After four days, the culture supernatants were collected and FGF17-hFcm was affinity-purified by Protein A membrane column. The purified FGF17-hFcm was added into the culture of mouse myoblast cells for 48 hours, followed by a 2 hour EdU pulse and fixation.
FIG. 11A: SDS-PAGE of culture supernatants from CHO cells transiently transfected with FGF17-hFcm or its mutants encoding plasmids (FGF17d181-216-hFcm, FGF17d204-216-hFcm, FGF17R204QK207Q-hFcm). The expressed FGF17-hFcm proteins and the mutant proteins were indicated by the white arrowheads. FIG. 11B) The culture supernatants from CHO cells transiently transfected with different FGF17 encoding plasmids were added into the culture of mouse myoblast cells for 48 hours followed by 2 hour EdU pulse and fixation.
FIG. 12A) SDS-PAGE of culture supernatants from CHO cells transiently transfected with FGF17-hFcm or its mutants encoding plasmids (FGF17d197-216-hFcm, FGF17K191AK193AS200A-hFcm). The expressed FGF17-hFcm proteins and the mutant proteins were indicated by the white arrowheads. FIG. 12B) The culture supernatants from CHO cells transiently transfected with different FGF17 encoding plasmids were added into the culture of mouse myoblast cells for 48 hours, followed by 2 hour EdU pulse and fixation.
FIG. 14A: Bar graph of % EdU+ mouse myoblast cells compared to vehicle. Myoblast were cultured 48h in the presence of indicated factors. […] Mean∓S.D. Table quantitation of % EdU and p-values (*p<0.05 by One-Way ANOVA Tukey Honest Significant Difference, n=2-6)
FIG. 15A: Bar graph of % EdU+ mouse myoblast cells compared to vehicle. […] Mean∓S.D. Table quantitation of % EdU and p-values shown. […]

Mouse myoblasts = test: Mouse myoblast fusion index with sodium butyrate; settings: 48h, vehicle 7.56
Method: Mouse myoblasts were treated with PBS or sodium butyrate at concentrations 0.1 nM, 1 nM, and 10 nM. Myoblasts were cultured for 48 hours, with fresh media added every 24 hours. Cells were pulsed for 2-5 hours with EdU (30 uM), ethanol fixed, stained with Hoescht 3342, immunostained for proliferation—as measured by the percent of cells staining positive for EdU (% EdU)—, and immunostained for differentiation—as measured by the increase in cellular area staining positive for embryonic myosin heavy chain (% eMyHC) relative to the negative controls, which received media and vehicle only. […] Significance was determined by a p-value less than 0.05 by the one-way ANOVA Tukey Honest Significant Difference test.
FIG. 2A: Bar graph of fusion index in response to sodium butyrate (NaBut) compared to vehicle. Myoblast were cultured 48h in the presence of NaBut at indicated dose. Fresh media and NaBut were added every 24h. Mean∓S.D. Table quantitation of fusion index and p-values also shown. (*p<0.05 by Student's Two-tailed T-test, n=3-5)

human myoblast cells [1] = test: Human myoblast differentiation, % area eMyHC (IGF2, sodium butyrate); settings: 96h, vehicle 6.813
Method: Fresh media was added every 24 hours. […] The total area of eMyHc positive cells was analyzed, and treated cells were compared to cells treated with the vehicle alone. […] Myoblast were cultured 96h in the presence of BMP7 at indicated dose. Fresh media and BMP7 was added every 24h. Mean∓S.D. (*p<0.05 by One-Way Anova Tukey Honest Significant Difference, n=2-12) […] Fresh media was added every 24 hours. […] FIG. 3A: Bar graph of % Area eMyHC+ age human myoblast (person) in response to indicated treatment compared to Vehicle (vehicle). Myoblast were cultured 96h in the presence of factors at indicated dose. Fresh media and factors were added every 24h. Mean∓S.D. Significant p-values (Vehicle IGF2: 0.03 ug/mL: 1.42E-08, Vehicle NaBut: 1 nM IGF2: 0.03 ug/mL: 1.79E-11, Vehicle NaBut: 10 nM IGF2: 0.03 ug/mL: 1.80E-11, Vehicle NaBut: 100 nM IGF2: 0.03 ug/mL: 1.79E-11). […] Myoblast were cultured 96h in the presence of BMP7 at indicated dose. Mean±S.D. Significant p-values (IGF2 NaBut: 1 nM IGF2: 0.03 ug/mL: 1.88E-3, Vehicle NaBut: 10 nM IGF2: 0.03 ug/mL: 4.80E-3, Vehicle NaBut: 100 nM IGF2: 0.03 ug/mL: 1.87E-3) (*p<0.05 by One-Way ANOVA Tukey Honest Significant Difference, n=2-12)

DM1 human myoblast = test: Gene expression fold change in DM1 human myoblast; settings: 48h; BMP7 50 ng/mL, Butyrate 100 nM, IGF2 200 ng/mL; FM 1.000
human myoblast cells [2] = test: Human myoblast differentiation, percentage area of MyHC; settings: Example 3, purified, 96 hours with daily media change; vehicle control 1.384
Method: FIG. 1A: The suspension CHO cells were transiently transfected with the IGF2-hFcm encoding plasmid. IGF2-hFcm was affinity-purified by Protein A membrane column. The purified IGF2-hFcm was added into the culture of human myoblast cells for 96 hours. Myosin heavy chain (MyHC) was immunostained and imaged by a fluorescence microscope.
The suspension CHO cells were transiently transfected with the IGF2-LhFc4 encoding plasmid. IGF2-LhFc4 was affinity-purified by Protein A membrane column. The purified IGF2-LhFc4 was added into the culture of human myoblast cells for 96 hours with daily media change. Myosin heavy chain (MyHC) was immunostained and imaged by a fluorescence microscope.
The suspension CHO cells were transiently transfected with the HSA-L-IGF2R61A encoding plasmid. HSA-L-IGF2R61A was affinity-purified by Protein A membrane column. […] Myosin heavy chain (MyHC) was immunostained and imaged by a fluorescence microscope.
Suspension CHO cells were transiently transfected with the IGF2-hFcm encoding plasmid. […] After quantification of the stained MyHC, the percentage area of MyHC was calculated as the percent of pixels within the field that are illuminated above background in the stained channel. […] Significance was determined by a p-value less than 0.05 by the one-way ANOVA Tukey Honest Significant Difference test.

## CC(C)C[C@H](N)C(=O)O [Leucine]
Mouse myoblast cells; Leucine 100, 300, 900 uM with BMP7 0.008 ug/mL, 48h
  Effect on BMP7 mitogenic activity (% EdU+): Enhances BMP7 Mitogenic Activity

## CCCC(=O)[O-].[Na+] [NaBut, sodium butyrate]
Mouse myoblasts; 0.1 nM
  Fusion Index (nuclei/myotube): 8.44 nuclei/myotube
Mouse myoblasts; 1 nM
  Fusion Index (nuclei/myotube): 31.60 nuclei/myotube
Mouse myoblasts; 10 nM
  Fusion Index (nuclei/myotube): 14.00 nuclei/myotube
Human myoblast cells [1]; NaBut 1 nM
  % eMyHC: 2.321%
Human myoblast cells [1]; NaBut 10 nM
  % eMyHC: 6.199%
Human myoblast cells [1]; NaBut 100 nM
  % eMyHC: 8.341%
DM1 human myoblast
  MYF5 expression fold change compared to FM: 1.128
  MYOD1 expression fold change compared to FM: 1.095
  MYOG expression fold change compared to FM: 1.020

## Heparin [reference compound]
Mouse myoblast cells; Heparin 0.5 ug/mL, 48h
  % EdU: 1.77%
Mouse myoblast cells; Heparin 1 ug/mL, 48h
  % EdU: 3.01%
Mouse myoblast cells; Heparin 2 ug/mL, 48h
  % EdU: 2.85%

## Hyaluronic Acid [Hyaluronic Acid (HA)]
Mouse myoblast cells; hyaluronic acid with BMP7, 48h
  Effect on BMP7 mitogenic activity (% EdU+): Enhances BMP7 Mitogenic Activity

## IGF2-hFc4: IGF2 fused to hFc4, human IgG4 Fc with S228P point mutation
Human myoblast cells [2]
  % MyHC: 6.901%
